In general, half-life refers to how long it takes for the measured level to halve.

The source of these data is patent publication US8222242B2, “Nitric oxide releasing compounds” (The Regents of the University of California, priority 2008, dated 2012).

Series [1] deals with CS-54 rat vascular smooth muscle cells. The following applies: added to CS-54 cells.
Protocol: CS-54 rat vascular smooth muscle cells were treated with the indicated concentrations of NO-Cbi for 1 hour (A), or 10 μM NO-Cbi for the indicated times (B and C). […] (C) Cell extracts were clarified by centrifugation, and nitrite and nitrate in the extracts were measured by an enhanced Griess reagent method. In A and B, “Con” refers to control, which was cells treated with water. As indicated, the effects of 30 μM cobinamide (Cbi) and 100 μM 8-CPT-cGMP (cGMP) are shown for comparison. In A and B, similar results were obtained in two other experiments.
Nitrite and nitrate were measured in CS-54 cell extracts and fly extracts using a kit from Active Motif based on an enhanced Griess reagent, as described previously (Broderick K E et al. (2006) FASEB J. 20:1865-73).
Series [2] concerns Malpighian tubules isolated from D. melanogaster. Nature of the series: Malpighian tubule fluid secretion. The arrangement: species or system Drosophila melanogaster. To be noted: 1 mM cobinamide or Cbi(II), 5 mM ascorbic acid, half-strength Schneider's medium. The procedure: Malpighian tubules are the osmoregulatory organs of D. melanogaster, corresponding to vertebrate kidneys. Tubular fluid secretion is stimulated by NO and cGMP, and fluid secretion rates were measured as described previously (Broderick K E et al. (2005) J. Biol. Chem. 280:8678-85). Briefly, the Malpighian tubule pair of a fly was resected and suspended in mineral oil. […]
Malpighian tubules are an excellent model for studying the effects of a drug on an intact organ system (Broderick K E et al. (2003) Am. J. Physiol. Cell Physiol. 285:C1207-18). […] Deta-NONOate may not be affected as much by cysteine in the medium, because it has a slower NO release rate and the intact drug can be transported intracellularly before much NO is released.

For the next series, the system named is mice. Format: in vivo, mouse. To be noted: for effect on blood pressure (controls) / effect on heart rate (controls): intraperitoneally, 8 mM Cbi(II) shown. On the procedure:
Mice were anesthetized with 1.5% isoflurane gas, and after achieving a stable blood pressure and pulse (about 10 minutes), they were injected intraperitoneally with 100 μl of […] 8 mM Cbi(II) (open circles, solid line), 8 mM NO-Cbi (filled circles, dashed line), or 8 mM nitroglycerin (squares, dotted lines) (panels a and b). Control refers to anesthetized mice who received 100 μl water (triangles, solid line). In panel C, 100 μl of 6 mM NO-Cbi was injected at 0, 32, and 64 minutes as indicated by the arrows. Systolic and diastolic blood pressures, and pulse rate, were measured at the indicated times on the tail artery using a non-invasive tail cuff. The percent change in mean arterial pressure (A and C), and pulse rate (B and C) are shown. For panels A and B, data are the mean±SD of results from five mice for NO-Cbi studied on separate days, and four mice for the other conditions. […] Data in panel C are the mean±SD of results from three mice studied on different days.
Pulse, and systolic and diastolic blood pressures, were measured non-invasively in the tail artery of mice by restraining mice on a warming platform maintained at ˜38° C. The base of the tail was placed in a computer-controlled pneumatic cuff, and the distal tail was placed in a sensor assembly consisting of a light emitting diode and a photodiode detector. Baseline measurements were made with the mice awake in a dark chamber. The mice were then anesthetized with 3% isoflurane in an induction chamber, and returned to the platform where they received 1.5% isoflurane with 2 liter per minute of oxygen via a nose cone; the isoflurane caused a small, but stable, drop in blood pressure. Drugs in a volume of 100 ul were injected intraperitoneally into the mice, and pulse and blood pressure were measured every 5-15 minute, taking five readings at each time point.
To determine the effect of NO release from NO-Cbi in an intact mammal, blood pressure and pulse of mice injected intraperitoneally with NO-Cbi were measured.

The test system of series [3] is vasodilator-stimulated phosphoprotein (VASP) phosphorylated on Ser239 in CS-54 rat vascular smooth muscle cells. Nature of the series: VASP phosphorylation in CS-54 cells (immunoblot). Format: cell-based. To be noted: added to CS-54 cells; 30 μM cobinamide shown.
Protocol: CS-54 rat vascular smooth muscle cells were treated with the indicated concentrations of NO-Cbi for 1 hour (A), or 10 μM NO-Cbi for the indicated times (B and C). […] In A and B, “Con” refers to control, which was cells treated with water. As indicated, the effects of 30 μM cobinamide (Cbi) and 100 μM 8-CPT-cGMP (cGMP) are shown for comparison. In A and B, similar results were obtained in two other experiments.
Briefly, cells treated with an NO-releasing agent were extracted rapidly in a sodium dodecyl sulfate (SDS) containing sample buffer, and the cell extracts were subjected to SDS-polyacrylamide gel electrophoresis. Phospho-VASP was assessed by immunoblotting using an antibody specific for VASP phosphorylated on Ser259 (Smolenski A et al. (1998) J. Biol. Chem. 273:20029-35).
To determine if NO released from NO-Cbi can have a physiologic effect in cultured cells, vasodilator-stimulated phosphoprotein (VASP) phosphorylation was assessed in CS-54 cells.
The conditions of series [4]: cited from earlier work.
The next series relates to isolated mouse hearts. Put plainly: Coronary flow in isolated perfused mouse hearts (Langendorff). On the procedure: Hearts and aortas were removed from NIH Swiss mice anesthetized with sodium nembutal, and coronary flow was measured in the hearts using a Langendorff preparation (FIG. 5a) and relaxation of aortic rings was measured after inducing constriction of the rings with prostaglandin F2α (FIG. 5b). The hearts and aortic rings were treated with a range of concentrations of NO-Cbi (filled circles), nitroglycerin (open circles, dotted line, FIG. 5a), and sodium nitroprusside (open circles, FIG. 5b). Coronary flow was measured on the same hearts for both NO-Cbi and nitroglycerin after an appropriate wash-out period between drugs, and aortic ring relaxation was measured on two rings from the same aorta for NO-Cbi and sodium nitroprusside. The data are the mean of two independent experiments performed on two separate hearts in each experiment (FIG. 5a), and the mean±SEM of two independent experiments performed on three separate aortic rings in each experiment (FIG. 5b).
Coronary flow was measured in isolated perfused mouse hearts in a Langendorff system, and was 10.8±0.5 ml/min/g wet weight (n=7 hearts) under basal conditions. […] The latter value is similar to maximal coronary flow of 24.6±1.8 ml/min/g wet weight obtained with 62 μM adenosine. For nitroglycerin to increase coronary flow to that of NO-Cbi, the nitroglycerin concentration had to be increased to 770 μM, or about 100-fold greater than the NO-Cbi concentration (FIG. 5a).

The subject of the next series is D. melanogaster. Nature of the series: Viability of injected D. melanogaster. To be noted: 1 μl injected; 1 mM (ascorbic acid 5 mM); observed 48 h. On the procedure:
(A) Tubular secretion rates of Malpighian tubules isolated from D. melanogaster were measured, using half-strength Schneider's medium. Basal tubular secretion was measured at 0, 10, and 20 minutes; at 20 minutes (depicted by the arrow) 1 mM cobinamide (Cbi, open circles), 1 mM NO-Cbi (filled circles), 0.5 mM Deta-NONOate (diamonds), or 100 μM 8-CPT-cGMP (inverted triangles) were added. Results are the mean±S.D. of three independent experiments performed on Malpighian tubule pairs from 10 flies. […] (B). Flies were injected with 1 μl of 1 mM cobinamide (Cbi, open circles), 1 mM NO-Cbi (filled circles), 0.5 mM Deta-NONOate (diamonds), or 1 mM spermine NONOate (squares). […] The data are plotted as a Kaplan-Meier survival curve, and are the mean±SD of three experiments, with 10 flies per condition per experiment. […] (C). Flies were injected with 1 μl of water (control, open bar), 1 mM cobinamide (Cbi, grey bar), or 1 mM NO-Cbi (black bars). Flies were killed and extracts were prepared at 3 hours for the water- and cobinamide-injected flies, and at the indicated times for the NO-Cbi-injected flies. Nitrite and nitrate in the extracts were measured using an enhanced Griess reagent.
The fluid volume of a fly is […], and thus, the injected agent was diluted about 10-fold. […]

A further series concerns rabbits. Nature of the series: Rabbits with phenylephrine-induced hypertension. The following applies: phenylephrine 5 to 20 μg/kg/min continuous intravenous infusion. Format: in vivo, rabbit. On the procedure:
Phenylephrine was given by continuous intravenous infusion to an anesthetized rabbit at increasing rates from 5 to 20 μg/kg/min; the rabbit remained on the highest phenylephrine infusion rate until the end of the experiment (darker arrows with “A”-shaped arrowheads indicate start times of each increasing dose). At 49 minutes, an infusion of NO-Cbi was started at a rate of 3 μg/kg/min (2.9 nmol/kg/min), with the infusion rate doubled at 58 minutes (lighter arrows with triangular-shaped arrowheads indicate start times of infusions). Systolic and diastolic blood pressure recordings from an intra-arterial catheter are shown. Changes in total hemoglobin, oxyhemoglobin, and deoxyhemoglobin concentrations were measured by continuous wave near-infrared spectroscopy over the left thigh muscle. Phenylephrine caused a progressive decrease in total hemoglobin and oxyhemoglobin concentrations, which reversed within seconds of starting the NO-Cbi infusion.
Decreased tissue oxygenation as occurred in the experiments shown in FIGS. 7 and 8 would clearly be an undesirable effect of treating hypertensive patients with NO-Cbi. However, lowering blood pressure of a hypertensive patient is very different from lowering blood pressure of a normotensive subject, and the experiments described in Example 15 rabbits with normal or low (due to anesthesia) blood pressure. To simulate a hypertensive state, the blood pressure of rabbits was raised using a continuous intravenous infusion of phenylephrine, a peripheral vasoconstrictor (FIG. 9). As the rabbit's blood pressure increased above normal, tissue perfusion and oxygenation decreased, as evidenced by a decrease in total hemoglobin and oxyhemoglobin concentrations in muscle.
Thus, in an animal with drug-induced hypertension, NO-Cbi improved tissue perfusion and oxygenation as it lowered blood pressure.

Turning to `C/C1=C2/[N-][C@H]([C@H](CC(N)=O)[C@@]2(C)CCC(=O)NC[C@@H](C)O)[C@]2(C)N=C(/C(C)=C3N=C(/C=C4N=C1[C@@H](CCC(N)=O)C\4(C)C)[C@@H](CCC(N)=O)[C@]\3(C)CC(N)=O)[C@@H](CCC(N)=O)[C@]2(C)CC(N)=O.[Co]` [Cbi(II), reference compound], the “effect on nitrite/nitrate levels (controls)” value in series [1] was “Neither cobinamide, Cbi(II), or ascorbate had any effect”. The “effect on tubular secretion (controls)” value in series [2] is listed as “Neither cobinamide nor Cbi(II) significantly affected tubular secretion”. For the same compound, in the series with mice, the “effect on blood pressure (controls)” value is “no significant effect” and the “effect on heart rate (controls)” value is reported as “no significant effect”. For the same compound, in series [3], the “effect on VASP phosphorylation (controls)” value is listed as “Neither cobinamide, Cbi(II), or ascorbate had any effect”.

Turning to `NCCN(CCN)/[N+]([O-])=N/O` [Deta-NONOate], in series [4], the half-life is given as approximately 50 h.

Consider `Nc1ncnc2c1ncn2[C@@H]1O[C@H](CO)[C@@H](O)[C@H]1O` [adenosine], for which, in the series on isolated mouse hearts (62 μM), the maximal coronary flow worked out at 24.6±1.8 ml/min/g wet weight.

With `O=C1O[C@H]([C@@H](O)CO)C(O)=C1O` [ascorbate, ascorbic acid, reference compound], in series [1], the “effect on nitrite/nitrate levels (controls)” value was “Neither cobinamide, Cbi(II), or ascorbate had any effect”. In the series with mice, the “effect on blood pressure (controls)” value is on record as “no significant effect” and the “effect on heart rate (controls)” value is “no significant effect”. The “effect on VASP phosphorylation (controls)” value in series [3] is “Neither cobinamide, Cbi(II), or ascorbate had any effect”.

For the compound `C/C1=C2/[N-][C@H]([C@H](CC(N)=O)[C@@]2(C)CCC(=O)NC[C@@H](C)O)[C@]2(C)N=C(/C(C)=C3N=C(/C=C4N=C1[C@@H](CCC(N)=O)C\4(C)C)[C@@H](CCC(N)=O)[C@]\3(C)CC(N)=O)[C@@H](CCC(N)=O)[C@]2(C)CC(N)=O.[Co+3]` [cobinamide, reference compound], the “effect on nitrite/nitrate levels (controls)” value in series [1] is reported as “Neither cobinamide, Cbi(II), or ascorbate had any effect”. In addition, in series [2], the “effect on tubular secretion (controls)” value is “Neither cobinamide nor Cbi(II) significantly affected tubular secretion”. In the series with D. melanogaster, the “fly killing / toxicity to flies” value is given as “not toxic to flies”. In the series on mice, the “effect on blood pressure (controls)” value is “no significant effect” and the “effect on heart rate (controls)” value was “no significant effect”. For the same compound, in series [3], the “effect on VASP phosphorylation (controls)” value is given as “Neither cobinamide, Cbi(II), or ascorbate had any effect”.

`O=[N+]([O-])OCC(CO[N+](=O)[O-])O[N+](=O)[O-]` [nitroglycerin]: the “systolic and diastolic blood pressure” value in the series with mice (0.8 μmol (100 μl of 8 mM) intraperitoneally, anesthetized mice) is “late decrease in blood pressure”. Further, in the series with isolated mouse hearts, the “concentration relative to the NO-Cbi concentration for equal coronary flow” value is given as “about 100 fold”. Besides, in the series with isolated mouse hearts (12.0 μM infused), the coronary flow is on record as 15.3±1.0 ml/min/g wet weight and the “increase of coronary flow” value turned out to be 34%. The “concentration needed to increase coronary flow to that of NO-Cbi” value in the series on isolated mouse hearts (versus 7 μM NO-Cbi) was determined as 770 µM.

As for `CNC[C@H](O)c1cccc(O)c1` [phenylephrine, reference compound], in the series with rabbits, the “systolic and diastolic blood pressure” value is “increased the systolic and diastolic blood pressure”; the “total hemoglobin and oxyhemoglobin in muscle” value was “decreased total hemoglobin and oxyhemoglobin in the muscle”.
